Molecules are shown by their SMILES. pIC50: −log10 of the molar value. Activity calls are given as the source filed them. The rule behind the calls is not given here.

From ChEMBL document CHEMBL4627276, “CT2-3, a novel magnolol analogue suppresses NSCLC cells through triggering cell cycle arrest and apoptosis” (Bioorg Med Chem, 2020) come the findings set out here.

Data set [1] has as its system NCI-H460. Description: Antiproliferative activity against human H460 cells assessed as inhibition of cell viability at 40 uM incubated for 24 hrs by CCK-8 assay. The format is functional, cell-based.
In data set [2] the test system is A549. Kind of data set: Antiproliferative activity against human A549 cells assessed as inhibition of cell viability at 40 uM incubated for 24 hrs by CCK-8 assay. The format is functional, cell-based.
The subject of data set [3] is A549. Kind of data set: Antiproliferative activity against human A549 cells assessed as inhibition of cell viability incubated for 24 hrs by CCK-8 assay. The format is functional, cell-based. The following applies: for pIC50: A549, 24 h.
The test system of data set [4] is NCI-H460. Kind of data set: Inhibition of colony formation in human H460 cells at 20 uM incubated for 48 hrs and measured after 10 days culturing in normal media by Giemsa staining based inverted microscopy. In kind it is functional, cell-based.
For data set [5], the system named is A549. Description: Inhibition of colony formation in human A549 cells at 20 uM incubated for 48 hrs and measured after 10 days culturing in normal media by Giemsa staining based inverted microscopy. In kind it is functional, cell-based.
The subject of data set [6] is NCI-H460. Description: Antiproliferative activity against human H460 cells assessed as inhibition of cell viability incubated for 24 hrs by CCK-8 assay. The format is functional, cell-based. The following applies: for pIC50: NCI-H460, 24 h.
Data set [7] can be described thus: Cytotoxicity against mouse MFF cells assessed as inhibition of cell viability after 24 hrs. The format is cell-based.
The test system of data set [8] is NCI-H460. Description: Cell cycle arrest in human H460 cells assessed as accumulation of cells at G1 phase at 40 uM incubated for 24 hrs by PI staining based flow cytometric analysis. In kind it is functional.
Data set [9] deals with NCI-H460. Kind of data set: Downregulation of CDK4 mRNA expression in human H460 cells at 40 uM after 24 hrs by RT-qPCR analysis. The format is functional, cell-based.
For data set [10], the system named is NCI-H460. Description: Downregulation of CDK6 mRNA expression in human H460 cells at 40 uM after 24 hrs by RT-qPCR analysis. The format is functional, cell-based.
The test system of data set [11] is NCI-H460. Kind of data set: Downregulation of Cyclin D1 mRNA expression in human H460 cells at 40 uM after 24 hrs by RT-qPCR analysis. In kind it is functional, cell-based.
Data set [12] has as its system A549. Description: Induction of apoptosis in human A549 cells assessed as necrotic cell at 20 uM incubated for 24 hrs by Annexin V-FITC/propidium iodide staining based flow cytometric method (reference value: 2.4%). In kind it is functional.
The test system of data set [13] is A549. Kind of data set: Induction of apoptosis in human A549 cells assessed as late apoptotic cells at 20 uM incubated for 24 hrs by Annexin V-FITC/propidium iodide staining based flow cytometric method (reference value: 1.7%). In kind it is functional.
Data set [14] concerns A549. Description: Induction of apoptosis in human A549 cells assessed as live cells at 20 uM incubated for 24 hrs by Annexin V-FITC/propidium iodide staining based flow cytometric method (reference value: 95.6%). In kind it is functional.
For data set [15], the system named is A549. Kind of data set: Induction of apoptosis in human A549 cells assessed as early apoptotic cells at 20 uM incubated for 24 hrs by Annexin V-FITC/propidium iodide staining based flow cytometric method (reference value: 0.3%). In kind it is functional.
Data set [16] concerns A549. Kind of data set: Induction of apoptosis in human A549 cells assessed as necrotic cell at 40 uM incubated for 24 hrs by Annexin V-FITC/propidium iodide staining based flow cytometric method (reference value: 2.4%). In kind it is functional.
Data set [17] concerns A549. Kind of data set: Induction of apoptosis in human A549 cells assessed as late apoptotic cells at 40 uM incubated for 24 hrs by Annexin V-FITC/propidium iodide staining based flow cytometric method (reference value: 1.7%). In kind it is functional.
The subject of data set [18] is A549. Description: Induction of apoptosis in human A549 cells assessed as live cells at 40 uM incubated for 24 hrs by Annexin V-FITC/propidium iodide staining based flow cytometric method (reference value: 95.6%). The format is functional.
Data set [19] has as its system A549. Kind of data set: Induction of apoptosis in human A549 cells assessed as early apoptotic cells at 40 uM incubated for 24 hrs by Annexin V-FITC/propidium iodide staining based flow cytometric method (reference value: 0.3%). In kind it is functional.
For data set [20], the system named is NCI-H460. Description: Induction of apoptosis in human H460 cells assessed as necrotic cell at 20 uM incubated for 24 hrs by Annexin V-FITC/propidium iodide staining based flow cytometric method (reference value: 2.1%). In kind it is functional.
Data set [21] relates to NCI-H460. Kind of data set: Induction of apoptosis in human H460 cells assessed as late apoptotic cells at 20 uM incubated for 24 hrs by Annexin V-FITC/propidium iodide staining based flow cytometric method (reference value: 4.3%). The format is functional.
Data set [22] deals with NCI-H460. Kind of data set: Induction of apoptosis in human H460 cells assessed as live cells at 20 uM incubated for 24 hrs by Annexin V-FITC/propidium iodide staining based flow cytometric method (reference value: 91.2%). In kind it is functional.
Data set [23] deals with NCI-H460. Description: Induction of apoptosis in human H460 cells assessed as early apoptotic cells at 20 uM incubated for 24 hrs by Annexin V-FITC/propidium iodide staining based flow cytometric method (reference value: 2.4%). The format is functional.
Data set [24] has as its system NCI-H460. Description: Induction of apoptosis in human H460 cells assessed as necrotic cell at 40 uM incubated for 24 hrs by Annexin V-FITC/propidium iodide staining based flow cytometric method (reference value: 2.1%). The format is functional.
For data set [25], the system named is NCI-H460. Description: Induction of apoptosis in human H460 cells assessed as late apoptotic cells at 40 uM incubated for 24 hrs by Annexin V-FITC/propidium iodide staining based flow cytometric method (reference value: 4.3%). The format is functional.
Data set [26] has as its system NCI-H460. Kind of data set: Induction of apoptosis in human H460 cells assessed as live cells at 40 uM incubated for 24 hrs by Annexin V-FITC/propidium iodide staining based flow cytometric method (reference value: 91.2%). The format is functional.
Data set [27] relates to NCI-H460. Description: Induction of apoptosis in human H460 cells assessed as early apoptotic cells at 40 uM incubated for 24 hrs by Annexin V-FITC/propidium iodide staining based flow cytometric method (reference value: 2.4%). The format is functional.
The test system of data set [28] is A549. Description: Induction of ROS generation in human A549 cells incubated for 24 hrs by DCFH-DA staining based fluorescence microscopy. The format is functional, cell-based.
Data set [29] has as its system NCI-H460. Description: Induction of ROS generation in human H460 cells incubated for 24 hrs by DCFH-DA staining based fluorescence microscopy. The format is functional, cell-based.
Data set [30] deals with NCI-H460. Kind of data set: Downregulation of TOP2B protein expression in human H460 cells at 40 uM incubated for 24 hrs by western blot analysis. The format is functional, cell-based.
For data set [31], the system named is NCI-H460. Description: Downregulation of TOP3B protein expression in human H460 cells at 40 uM incubated for 24 hrs by western blot analysis. In kind it is functional, cell-based.
Data set [32] has as its system NCI-H460. Description: Downregulation of c-Myc protein expression level in human H460 cells at 40 uM incubated for 24 hrs by western blot analysis. The format is functional, cell-based.
Data set [33] concerns NCI-H460. Kind of data set: Downregulation of TOP2B mRNA expression in human H460 cells incubated for 24 hrs by RT-qPCR analysis. The format is functional, cell-based.
Data set [34] has as its system NCI-H460. Kind of data set: Downregulation of TOP3B mRNA expression in human H460 cells incubated for 24 hrs by RT-qPCR analysis. The format is functional, cell-based.
Data set [35] has as its system NCI-H460. Description: Downregulation of c-Myc mRNA expression level in human H460 cells incubated for 24 hrs by RT-qPCR analysis. In kind it is functional, cell-based.
The subject of data set [36] is A549. Kind of data set: Antiproliferative activity against human A549 cells assessed as cell viability at 40 uM incubated for 24 hrs by CCK-8 assay. In kind it is functional. The following applies: A549, 24 h, read-out: Activity.
Data set [37] has as its system NCI-H460. Kind of data set: Antiproliferative activity against human H460 cells assessed as cell viability at 40 uM incubated for 24 hrs by CCK-8 assay. The format is functional. To be noted: NCI-H460, 24 h, read-out: Activity.

For `C=CCc1ccc(O)c(-c2cc(CC=C)ccc2O)c1` [MAGNOLOL], the result in the data set on NCI-H460 [1] and in the data set on A549 [2] was inactive. The pIC50 with A549 [3] and in the data set on NCI-H460 [6] was less than 4.10 each time. The inhibition result in the data set on NCI-H460 [4] and in the data set on A549 [5] was “inactive” in each case.

On to `C=CCc1ccc(O)c(-c2cc(CC=C)ccc2OCC[S+]([O-])CCCCN2C(=O)c3ccccc3C2=O)c1` (configuration not stated), for which the inhibition result with A549 [3] and in the data set with NCI-H460 [6] was “Dose-dependent effect” throughout. Further, the values for the pIC50 in the data set with A549 [3] and in the data set with NCI-H460 [6] were 4.38 and 4.42, respectively. For the same compound, the Activity result in data set [7] was “Non-Toxic”; with A549 [12], 3%; in the data set with A549 [13] it was 11.9%; in the data set with A549 [14], 83.2%; with A549 [15], 1.9%; with A549 [16], 8%. The Activity is reported as 34.5% in the data set with A549 [17]; 56.7% in the data set with A549 [18]; 0.8% in the data set on A549 [19]; 7.9% in the data set on NCI-H460 [20]; 18.6% in the data set on NCI-H460 [21]; 66.7% in the data set on NCI-H460 [22]. Moreover, the Activity with NCI-H460 [23] is 6.8%; in the data set with NCI-H460 [24], 9.6%; in the data set on NCI-H460 [25], 38.1%; in the data set with NCI-H460 [26], 46.6%; in the data set with NCI-H460 [27], 5.7%; with A549 [28], “Dose-dependent effect”. Also, the Activity entry in the data set with NCI-H460 [29] is “Dose-dependent effect”. Further, the result in the data set on NCI-H460 [8] was Active. The inhibition entry with NCI-H460 [4], in the data set on A549 [5], with NCI-H460 [9], with NCI-H460 [10], in the data set with NCI-H460 [11] and in the data set on NCI-H460 [30] was “Active” throughout. In addition, the inhibition result with NCI-H460 [31], with NCI-H460 [32], in the data set on NCI-H460 [33], in the data set on NCI-H460 [34] and with NCI-H460 [35] was “Active” throughout. The viability at 40 µM worked out at 51% in the data set with A549 [36] and 48.4% with NCI-H460 [37].

As for `C=CCc1ccc(O)c(-c2cc(CC=C)ccc2OCCS(=O)(=O)CCCCN2C(=O)c3ccccc3C2=O)c1`, the outcome in the data set on NCI-H460 [1] and in the data set on A549 [2] was inactive.

On to `C=CCc1ccc(O)c(-c2cc(CC=C)ccc2OCCSCCCCN2C(=O)c3ccccc3C2=O)c1`, for which the result in the data set on NCI-H460 [1] and in the data set with A549 [2] was inactive.
